From ChEMBL document CHEMBL1132532, “Correlation of anti-HIV activity with structure: use of electrostatic potential and conformational analysis” (Bioorg Med Chem Lett, 1999) come the findings set out here.

What all share (format): functional, cell-based
What all share (conditions): Homo sapiens

Assay [1] deals with PBMC. Put plainly: The compound was tested for anti HIV-activity (active) against PBM cell line.
In assay [2] the test system is MT2. Put plainly: The compound was tested for anti HIV-activity (active) against MT-2 cell line.
For assay [3], the system named is ATH-8 cell line. Put plainly: The compound was tested for anti HIV-activity (active) against ATH8 cell line.
The subject of assay [4] is MT4. As to the kind of experiment: The compound was tested for anti HIV-activity (active) against MT-4 cell line.

Where only a bound is given, the exact number is not on record here.

As usually defined, the IC50 is the concentration at which inhibition is half-maximal. A low value points to higher potency. Take `Nc1ncnc2c1ncn2[C@@H]1CO[C@H](CO)C1`: the half-maximal inhibitory concentration (IC50) in assay [1] is 0.67 µM.

As for `Nc1nc(O)c2ncn(C3C=CC(CO)O3)c2n1` (stereo not drawn), the IC50 in assay [2] and in assay [3] was 0.19 µM in each case.

`Nc1ncnc2c1ncn2[C@H]1CO[C@@H](CO)C1`: the figures for the IC50 in assay [3] and in assay [4] were 15 µM and 43 µM, respectively.

Consider `Nc1ncnc2c1ncn2[C@H]1C[C@@H](CO)CO1`, for which, in assay [4], the IC50 is above 200 µM.

Turning to `Nc1ccn(C2COC(CO)C2)c(=O)n1` (stereo not drawn), in assay [4], the IC50 was above 200 µM.

In the case of `Cc1cn([C@H]2C[C@H](N=[N+]=[N-])[C@@H](CO)O2)c(=O)[nH]c1=O` [ZIDOVUDINE], the IC50 in assay [1] worked out at 0.004 µM; in assay [3] it was 0.4 µM.

With `Nc1nc(O)c2ncn(C3COC(CO)C3)c2n1` (stereo not drawn), the IC50 in assay [4] is above 200 µM.

Turning to `Nc1ncnc2c1ncn2[C@@H]1C[C@H](CO)CO1`, the IC50 in assay [4] is above 200 µM.

In turn, `Cc1cn(C2COC(CO)C2)c(=O)[nH]c1=O` (stereo not drawn) yielded an IC50 in assay [4] above 200 µM.

As to `Nc1ncnc2c1ncn2[C@@H]1O[C@H](CO)[C@H]1CO`, the half-maximal inhibitory concentration (IC50) in assay [4] was found to be 4 µM.
